Among the data in US20240207421A1, “NERVE TARGETING PEPTIDES AND METHODS OF USE” (ALUME BIOSCIENCES, INC., priority 2020, published 2024) are Count values, retold here.

This experiment has as its system Laminin 421/521. In words: Phage display library screening (Example 2), NEB laminin-binding peptides. Set-up: species or system human. As to conditions: Laminin 421/521, not 211 and 411; combined unique sequence count, Python/R script analysis. How it is done: Phage display library screens were used to identify peptides that bind to target proteins (including specific laminin trimers) that are expressed in human nerves, as described in Table 3. These screens were also carried out to identify peptides that could bind selectively to nerves versus muscle. Such peptides could therefore be useful for systemic in-vivo labeling of nerves during fluorescence assisted surgery. Specifically, m 13 phage libraries expressing 7 or 12 random amino acid peptides, or a cyclic peptide CX7C, on the N-terminus of the minor coat protein pIII (New England Biolabs; NEB) were processed through multiple rounds of selection for binding to target proteins expressed in nerves, or to excised human nerves, nerve extracts, or muscle, as described further below.
For screening against the specified target proteins in Table 1, including LN211, LN411, LN421, and LN521, the phage library was processed by up to 4 binding and wash cycles. For selection, phage libraries were incubated for up to 24 hours at 4° C. in 96 well plates that had been coated with one of the target proteins. Plates were then washed with PBS and phage were eluted using 0.2M glycine pH 2.0. Phage supernatants where then neutralized with Tris pH 9.0 prior to plating on TGI bacteria and LB agar plates. Colonies were counted to determine titer followed by DNA preparation of pools of phage and NextGen sequencing. After rounds of selection, phage were pooled and amplified for iterative selection. Phage that were bound at each round were sequenced. NextGen sequencing of pools after 2, 3 and 4 rounds of selection was used to isolate candidate sequences that were analyzed further to identify those that specifically bound each unique target protein.
For all NEB sequence datasets, a python script was used to translate, trim, and filter the peptide sequences (see details above). A python script was used to group peptides from different assays according to laminin complex binding (laminin complex 211, 411, 421, or 521) and combine the unique sequence counts for each peptide. An R script was written to merge the peptide sequences from different data files and determine peptides that specifically bind one laminin complex and not the others, or that bind both laminin 421 and 521 but not 211 and 411.
Turning to “EDRMMTYRYTST (Laminin 421/521-binding peptide)”, the Count is reported as 29. Turning to “CGITQTTTC (Laminin 421/521-binding peptide)”, the Count is 55. With “ETYKVTRVISPW (Laminin 421/521-binding peptide)”, the Count is listed as 50. With “KISMNRLHANFT (Laminin 421/521-binding peptide)”, the Count amounted to 110. “WAFKAPQ (Laminin 421/521-binding peptide)”: the Count is reported as 61. The figure for “CIGGPHRNC (Laminin 421/521-binding peptide)” is 29; for “FPLKIRT (Laminin 421/521-binding peptide)” it is 42. As to “LARSSIMAANNV (Laminin 421/521-binding peptide)”, the Count amounted to 42. The figure for “GPKNHHQ (Laminin 421/521-binding peptide)” is 51.

On to “WVAAERR (Laminin 421/521-binding peptide)”, for which the Count was 115. For “HPAWADFFTMSS (Laminin 421/521-binding peptide)”, the Count stood at 29.

As to “AQNLRVHAWASL (Laminin 421/521-binding peptide)”, the Count came out at 28. With “ALGGEPRKAYQR (Laminin 421/521-binding peptide)”, the Count amounted to 45.

As to “RAQAHQV (Laminin 421/521-binding peptide)”, the Count was 51. With “TFGSGRSMPIQY (Laminin 421/521-binding peptide)”, the Count was found to be 34. Regarding “CPMHQSKTC (Laminin 421/521-binding peptide)”, the Count stood at 28.

As for “CGETTAGKC (Laminin 421/521-binding peptide)”, the Count stood at 33. Turning to “WGANTTGRTHGG (Laminin 421/521-binding peptide)”, the Count is 40. With “TALSHRHEAMRW (Laminin 421/521-binding peptide)”, the Count was found to be 28. Consider “SLNTTWVSPMMK (Laminin 421/521-binding peptide)”, for which the Count turned out to be 37. The figure for “QLQHVHL (Laminin 421/521-binding peptide)” is 28. On to “WRSPLTT (Laminin 421/521-binding peptide)”, for which the Count is given as 30. Consider “TKGIAPK (Laminin 421/521-binding peptide)”, for which the Count stood at 28. Turning to “ALPWQSGVHGTK (Laminin 421/521-binding peptide)”, the Count amounted to 34. The figure for “HASNQRV (Laminin 421/521-binding peptide)” is 93. Take “LDRNADSVRAVL (Laminin 421/521-binding peptide)”: the Count is 46. Regarding “HSTYAPG (Laminin 421/521-binding peptide)”, the Count is on record as 33. As for “QGHPFIY (Laminin 421/521-binding peptide)”, the Count amounted to 40.

As to “IDQSGLQKSGMK (Laminin 421/521-binding peptide)”, the Count worked out at 29. With “GAMMNSNNLVAR (Laminin 421/521-binding peptide)”, the Count amounted to 43. For the substance “SDRGKTVLHGQI (Laminin 421/521-binding peptide)”, the Count is recorded as 54. For the substance “LGSSRSPSSFLG (Laminin 421/521-binding peptide)”, the Count came out at 29. For “CGLATNKSC (Laminin 421/521-binding peptide)”, the Count worked out at 39. Consider “SFRNLEKLSLWS (Laminin 421/521-binding peptide)”, for which the Count turned out to be 50. “SLPYAASLNSVE (Laminin 421/521-binding peptide)”: the Count came to 28. For the substance “HQSVTGVRSHFH (Laminin 421/521-binding peptide)”, the Count was determined as 27. Consider “QTLQTRH (Laminin 421/521-binding peptide)”, for which the Count is reported as 44. In the case of “WGLKLPH (Laminin 421/521-binding peptide)”, the Count was found to be 117.

For the substance “CWSGNSRSC (Laminin 421/521-binding peptide)”, the Count came out at 42. Consider “GGGYHIFGPLVT (Laminin 421/521-binding peptide)”, for which the Count stood at 43.

On to “AVVSQNQMSQQK (Laminin 421/521-binding peptide)”, for which the Count is 64. Turning to “AHAAGRDMRQGT (Laminin 421/521-binding peptide)”, the Count is on record as 36. For “SVESNSKLTMPR (Laminin 421/521-binding peptide)” the value was 29; for “NDTGRHASGISK (Laminin 421/521-binding peptide)”, 32.

Take “TFAAAQAELIMV (Laminin 421/521-binding peptide)”: the Count is given as 38. Regarding “AWVEAQNASNPS (Laminin 421/521-binding peptide)”, the Count was found to be 160. For “KASIAYD (Laminin 421/521-binding peptide)” the value was 30; for “AVRPLGLPDNHR (Laminin 421/521-binding peptide)”, 29. In the case of “LLAGPFR (Laminin 421/521-binding peptide)”, the Count is 44. As to “DWTQVRVTNWFL (Laminin 421/521-binding peptide)”, the Count worked out at 35. With “TTLWLDRDEALK (Laminin 421/521-binding peptide)”, the Count is 27.

Take “SWHFTGTPFMNR (Laminin 421/521-binding peptide)”: the Count was 28. Regarding “QTFGYSMFNVRT (Laminin 421/521-binding peptide)”, the Count stood at 30.

In the case of “RLVTASMVSPSF (Laminin 421/521-binding peptide)”, the Count is 95. On to “QPTPSQIKFTRT (Laminin 421/521-binding peptide)”, for which the Count is 28. As to “QINWKQADKNAD (Laminin 421/521-binding peptide)”, the Count was determined as 33. Consider “GYRSFIHENWSI (Laminin 421/521-binding peptide)”, for which the Count is 68. Take “GSGFRNEEHSAH (Laminin 421/521-binding peptide)”: the Count is 51. With “GWIQDTFVLGRS (Laminin 421/521-binding peptide)”, the Count worked out at 40. For the substance “QTFHEYLNPARG (Laminin 421/521-binding peptide)”, the Count stood at 37.

On to “EYWHQRGSWFHR (Laminin 421/521-binding peptide)”, for which the Count turned out to be 55. For “CVLKCEDQKYRG (Laminin 421/521-binding peptide)” the value was 27; for “WPVRNLL (Laminin 421/521-binding peptide)”, 67. The figure for “SVQTPMWRSLVG (Laminin 421/521-binding peptide)” is 28. As for “CLHNGQRSC (Laminin 421/521-binding peptide)”, the Count worked out at 37. For the substance “CTKSPSNSC (Laminin 421/521-binding peptide)”, the Count came out at 58. Take “KALGYSLVGGEW (Laminin 421/521-binding peptide)”: the Count came out at 134. For “GSLDMGNNKQPV (Laminin 421/521-binding peptide)” the value was 62. On to “CSRAGLSAC (Laminin 421/521-binding peptide)”, for which the Count is on record as 30. Turning to “CHRTYNSTC (Laminin 421/521-binding peptide)”, the Count was 46. In the case of “CSHHKLKQC (Laminin 421/521-binding peptide)”, the Count was found to be 359. The figure for “ASHSRPLMNYAP (Laminin 421/521-binding peptide)” is 49; for “CKSERGPEC (Laminin 421/521-binding peptide)” it is 30; for “APKVTNARPTQL (Laminin 421/521-binding peptide)” it is 147. In the case of “SNPKHVSSLGQM (Laminin 421/521-binding peptide)”, the Count is reported as 40. As to “CLQKNHKFC (Laminin 421/521-binding peptide)”, the Count is 27. Turning to “WDLPTLRKTKQA (Laminin 421/521-binding peptide)”, the Count was determined as 114.

On to “AQRMNQA (Laminin 421/521-binding peptide)”, for which the Count is recorded as 38. For DGANMENIAPAN, the Count is on record as 27. In the case of “SHDVANGTSVRT (Laminin 421/521-binding peptide)”, the Count is 29. “GKPDHRLVSLWR (Laminin 421/521-binding peptide)”: the Count was 309. Regarding “FNSDSRSTHQED (Laminin 421/521-binding peptide)”, the Count is listed as 29. Turning to “TLKAGTRANDGV (Laminin 421/521-binding peptide)”, the Count is listed as 32. The figure for “DSLYRGMHQPRI (Laminin 421/521-binding peptide)” is 29.
